Reference: ChEMBL document CHEMBL5126506, “Coumarin-benzimidazole hybrids: A review of developments in medicinal chemistry” (Eur J Med Chem, 2022)
In brackets after ≈: the same amount, converted by molar mass.

Assays:
[1] = Anticancer activity against human KATO III stomach cancer cell line assessed as cell growth inhibition measured after 3 days by CCK-8 assay; type: functional; conditions: 72 h, time 3 day
PANC-1 = assay: Anticancer activity against human PANC-1 cells assessed as cell growth inhibition measured after 3 days by CCK-8 assay; type: functional; conditions: PANC-1, 72 h, time 3 day
K562 = assay: Anticancer activity against human K562 cells assessed as cell growth inhibition measured after 3 days by CCK-8 assay; type: functional; conditions: K562, 72 h, time 3 day
SK-OV-3 = assay: Anticancer activity against human SK-OV-3 cells assessed as cell growth inhibition measured after 3 days by CCK-8 assay; type: functional; conditions: SK-OV-3, 72 h, time 3 day
Rattus norvegicus [2] = assay: Antiinflammatory activity in formalin induced Wistar rat paw oedema model assessed as inhibition of paw oedema administered up to 6 hrs by plethysmograph analysis; type: functional, organism-based; parameters: scale not given: the % may be the effect or the level left
Metaphire sieboldi = assay: Anthelmintic activity against Metaphire sieboldi assessed as mean paralysing time up to 0.5% w/v; type: functional
AGS = assay: Anticancer activity against human AGS cells assessed as cell growth inhibition measured after 3 days by CCK-8 assay; type: functional; conditions: 72 h, time 3 day
SNU1 = assay: Anticancer activity against human SNU1 cells assessed as cell growth inhibition measured after 3 days by CCK-8 assay; type: functional; conditions: SNU1, 72 h, time 3 day
[3] = target: Serum paraoxonase/arylesterase 1 (Homo sapiens, UniProt P27169); assay: Inhibition of human PON1 using paraoxon as a substrate by regression analysis
Staphylococcus aureus [4] = assay: Antibacterial activity against Staphylococcus aureus ATCC 6538 assessed as zone of inhibition at 500 ug per disk measured after 24 hrs by NCCLS based disk diffusion method; type: functional; conditions: read-out: DIZ
HT-29 = assay: Anticancer activity against human HT-29 cells assessed as cell growth inhibition measured after 72 hrs by MTT assay; type: functional, cell-based; conditions: HT-29, 72 h
[5] = Anticancer activity against human U-87 MG cells assessed as cell growth inhibition measured after 72 hrs by MTT assay; type: functional, cell-based, U-87MG ATCC
A549 = assay: Anticancer activity against human A549 cells assessed as cell growth inhibition measured after 72 hrs by MTT assay; type: functional, cell-based; conditions: A549, 72 h
NCI-H460 = assay: Anticancer activity against human NCI-H460 cells assessed as cell growth inhibition measured after 72 hrs by MTT assay; type: functional, cell-based; conditions: NCI-H460, 72 h
Rattus norvegicus [6] = assay: Antiinflammatory activity in carrageenan induced rat paw oedema model assessed as inhibition of paw oedema, ip pretreated with compound for 30 mins followed by carrageenan injection measured after 3 hrs relative to control; type: functional; parameters: scale not given: the % may be the effect or the level left; conditions: time 3.5 hrs
SMMC-7721 = assay: Anticancer activity against human SMMC-7721 cells assessed as cell growth inhibition measured after 72 hrs by MTT assay; type: functional, cell-based; conditions: SMMC-7721, 72 h
Carbonic anhydrase 1 = Carbonic anhydrase 1 (Homo sapiens, UniProt P00915); assay: Inhibition of human carbonic anhydrase-1 by stopped flow CO2 hydrase assay
Carbonic anhydrase 2 = Carbonic anhydrase 2 (Homo sapiens, UniProt P00918); assay: Inhibition of human carbonic anhydrase-2 by stopped flow CO2 hydrase assay
Sprivivirus cyprinus = assay: Antiviral activity against Carp sprivivirus infected Fathead minnow EPC cells assessed as assessed as suppression of virus-induced cytopathic effect incubated for 48 hrs by CCK-8 assay; type: functional, organism-based
CCRF-CEM = assay: Anticancer activity against human CEM/0 cells assessed as cell growth inhibition measured after 3 days by CCK-8 assay; type: functional, cell-based; conditions: 72 h
[7] = Anticancer activity against mouse L1210/0 cells assessed as cell growth inhibition measured after 3 days by CCK-8 assay; type: functional, cell-based; conditions: L1210/0, 72 h
MOLT-4 = assay: Anticancer activity against human Molt4/C8 cells assessed as cell growth inhibition measured after 3 days by CCK-8 assay; type: functional, cell-based; conditions: MOLT-4, 72 h
HeLa = assay: Anticancer activity against human HeLa cells assessed as cell growth inhibition by SRB method; type: functional
Pseudomonas aeruginosa [8] = assay: Antibacterial activity against Pseudomonas aeruginosa assessed as zone of inhibition measured after 24 hrs by agar well diffusion method; type: functional
Pseudomonas aeruginosa [9] = assay: Antibacterial activity against Pseudomonas aeruginosa assessed as cell growth inhibition measured after 24 hrs by serial broth-dilution method; type: functional
Aspergillus flavus [10] = assay: […] activity against Aspergillus flavus assessed as cell growth inhibition measured after 24 hrs by serial broth-dilution method; type: functional
Aspergillus flavus [11] = assay: […] activity against Aspergillus flavus assessed as zone of inhibition measured after 24 hrs by agar well diffusion method; type: functional
Escherichia coli [12] = assay: Antibacterial activity against Escherichia coli assessed as zone of inhibition at 25 ug/ml; type: functional; conditions: read-out: DIZ
[13] = Antibacterial activity against Xanthomonas citri assessed as zone of inhibition at 25 ug/ml; type: functional; conditions: read-out: DIZ
Mus musculus = assay: Antiinflammatory activity in carrageenan induced mouse paw oedema model assessed as inhibition of paw oedema at 100 mg/kg, po pretreated with compound for 30 mins followed by carrageenan injection measured after 5 hrs relative to control; type: functional; parameters: scale not given: the % may be the effect or the level left; conditions: time 5.5 hrs
[14] = Antioxidant activity assessed as DPPH radical scavenging activity incubated for 10 mins in dark condition by spectrophotometer method; type: functional
Bacillus subtilis [15] = assay: Antibacterial activity against Bacillus subtilis assessed as zone of inhibition measured after 24 hrs by agar well diffusion method; type: functional
Escherichia coli [16] = assay: Antibacterial activity against Escherichia coli assessed as zone of inhibition measured after 24 hrs by agar well diffusion method; type: functional
[17] = Antioxidant activity assessed as DPPH radical scavenging activity preincubated for 24 hrs followed by dark incubation 30 mins by UV-visible spectrophotometer method; type: functional
Staphylococcus aureus [18] = assay: Antibacterial activity against Staphylococcus aureus ATCC 6538P measured after 16 hrs by CLSI based microtitre broth dilution method; type: functional
Escherichia coli [19] = assay: Antibacterial activity against Escherichia coli MTCC 739 measured after 16 hrs by CLSI based microtitre broth dilution method; type: functional
Bacillus subtilis [20] = assay: Antibacterial activity against Bacillus subtilis MTCC 1789 measured after 16 hrs by CLSI based microtitre broth dilution method; type: functional
Pseudomonas aeruginosa [21] = assay: Antibacterial activity against Pseudomonas aeruginosa ATCC 25668 measured after 16 hrs by CLSI based microtitre broth dilution method; type: functional
Staphylococcus aureus [22] = assay: Antibacterial activity against beta lactamase positive Staphylococcus aureus ATCC 25923 assessed as zone of inhibition at 0.5 mg/ml incubated for 18 hrs by Kirby-Bauer disk diffusion method; type: functional; conditions: read-out: DIZ

Sequence of Carbonic anhydrase 1 (P00915 whole entry): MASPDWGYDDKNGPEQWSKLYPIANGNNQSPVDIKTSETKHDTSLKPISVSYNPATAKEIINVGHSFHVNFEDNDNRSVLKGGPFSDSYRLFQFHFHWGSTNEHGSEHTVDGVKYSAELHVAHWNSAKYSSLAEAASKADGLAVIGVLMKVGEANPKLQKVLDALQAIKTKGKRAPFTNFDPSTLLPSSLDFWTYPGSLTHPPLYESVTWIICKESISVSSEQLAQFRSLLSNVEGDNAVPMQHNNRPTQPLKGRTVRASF
Sequence of Serum paraoxonase/arylesterase 1 (P27169 whole entry, the tested form may be a part): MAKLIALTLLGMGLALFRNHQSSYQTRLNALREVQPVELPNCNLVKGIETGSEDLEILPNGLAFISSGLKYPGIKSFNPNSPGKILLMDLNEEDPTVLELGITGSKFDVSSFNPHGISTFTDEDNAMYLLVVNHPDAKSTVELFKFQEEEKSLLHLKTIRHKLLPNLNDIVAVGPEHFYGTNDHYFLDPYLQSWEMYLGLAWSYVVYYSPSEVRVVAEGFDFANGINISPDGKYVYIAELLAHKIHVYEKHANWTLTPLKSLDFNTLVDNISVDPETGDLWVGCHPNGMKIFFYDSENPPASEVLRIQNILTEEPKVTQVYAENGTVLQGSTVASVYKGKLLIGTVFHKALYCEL

Structure (SMILES): CCN(CC)c1ccc2cc(-c3nc4ccccc4n3C)c(=O)oc2c1
- GI50 [1]: 100 nM
- GI50 (PANC-1): 100 nM
- GI50 (K562): 70 nM
- GI50 (SK-OV-3): 70 nM

Structure (SMILES): O=c1oc2ccc(Cl)cc2cc1-c1nc2ccccc2[nH]1
- Activity (Rattus norvegicus [2]): 46.75%

Structure (SMILES): O=c1oc2ccc(Br)cc2cc1-c1nc2ccccc2[nH]1
- Activity (Rattus norvegicus [2]): 45.45%

Structure (SMILES): O=C(Cc1cc(=O)oc2ccccc12)Nc1nc2ccccc2[nH]1
- Time (Metaphire sieboldi): 14 min

Structure (SMILES): CCN(CC)c1ccc2cc(-c3nc4cc(C)ccc4n3C)c(=O)oc2c1
- GI50 [1]: 590 nM
- GI50 (K562): 670 nM
- GI50 (AGS): 780 nM
- GI50 (SNU1): 120 nM

Structure (SMILES): Cc1c(C)c(C)c(Cn2c[n+](Cc3cc(=O)oc4cc(O)ccc34)c3ccccc32)c(C)c1C
- IC50 [3]: 7840 nM

Structure (SMILES): O=c1oc2ccccc2c(Nc2nc3ccccc3[nH]2)c1[N+](=O)[O-]
- zone of inhibition at 500 µg/disc (Staphylococcus aureus [4]): 23 mm

Structure (SMILES): O=C(CCl)n1c(-c2cc3ccccc3oc2=O)nc2ccccc21
- IC50 (HT-29): 570 nM
- IC50 [5]: 340 nM
- IC50 (A549): 290 nM
- IC50 (NCI-H460): 590 nM

Structure (SMILES): O=c1cc(Cc2nc3ccccc3[nH]2)c2ccccc2o1
- Activity (Rattus norvegicus [6]): 45%

Structure (SMILES): O=C(/C(Cl)=N/Nc1ccc(Cl)cc1Cl)n1c(-c2cc3ccccc3oc2=O)nc2ccccc21
- IC50 [5]: 290 nM
- IC50 (A549): 250 nM
- IC50 (SMMC-7721): 220 nM
- IC50 (NCI-H460): 360 nM

Structure (SMILES): O=c1cc(C[n+]2cn(Cc3ccc4ccccc4c3)c3ccccc32)c2ccc(O)c(O)c2o1
- IC50 (Carbonic anhydrase 1): 4990 nM
- IC50 (Carbonic anhydrase 2): 6010 nM

Structure (SMILES): O=c1ccc2cc(OCCCn3cnc4ccccc43)ccc2o1
- IC50 (Sprivivirus cyprinus): 2.2 µg/mL (≈ 6.87 µM)

Structure (SMILES): O=c1oc2ccc(Cl)cc2cc1-c1nc2cc(Cl)ccc2[nH]1
- IC50 (CCRF-CEM): 0.42 µg/mL (≈ 1.27 µM)
- IC50 [7]: 0.67 µg/mL (≈ 2.02 µM)
- IC50 (MOLT-4): 0.44 µg/mL (≈ 1.33 µM)

Structure (SMILES): Cc1ccc(S(=O)(=O)n2c(-c3cc(=O)oc4ccc(C)cc34)nc3ccccc32)cc1
- GI50 (HeLa): 35 µg/mL (≈ 81.3 µM)

Structure (SMILES): Cc1ccc2c(Cc3nc4ccccc4[nH]3)cc(=O)oc2c1
- Activity (Rattus norvegicus [6]): 45%

Structure (SMILES): Cc1ccc2oc(=O)c(-c3nc4cc(Cl)ccc4[nH]3)cc2c1
- IC50 (CCRF-CEM): 1.9 µg/mL (≈ 6.11 µM)
- IC50 [7]: 5.1 µg/mL (≈ 16.4 µM)
- IC50 (MOLT-4): 3.6 µg/mL (≈ 11.6 µM)

Structure (SMILES): O=c1oc2ccccc2c(O)c1C(Sc1nc2ccccc2[nH]1)c1ccccc1 (stereo not drawn)
- diameter of the inhibition zone (DIZ) (Pseudomonas aeruginosa [8]): 23 mm
- MIC (Pseudomonas aeruginosa [9]): 200 µg/mL (≈ 499 µM)
- MIC (Aspergillus flavus [10]): 200 µg/mL (≈ 499 µM)
- diameter of the inhibition zone (DIZ) (Aspergillus flavus [11]): 18 mm

Structure (SMILES): CCOC(=O)c1sc(Sc2cc3ccccc3oc2=O)c(-c2nc3ccccc3[nH]2)c1N
- zone of inhibition at 25 µg/mL (Escherichia coli [12]): 19 mm
- zone of inhibition at 25 µg/mL [13]: 14 mm

Structure (SMILES): O=c1cc(C[n+]2cn(Cc3ccc4ccccc4c3)c3ccccc32)c2ccc(O)cc2o1
- IC50 (Carbonic anhydrase 1): 5340 nM
- IC50 (Carbonic anhydrase 2): 6010 nM

Structure (SMILES): COc1ccc(N2CC(c3cc(=O)oc4cc(C)ccc34)c3nc4ccccc4n3C2)cc1 (stereo not drawn)
- Activity (Mus musculus): 52.61%

Structure (SMILES): O=C(CC(Sc1nc2ccccc2[nH]1)c1ccccc1)c1cc2ccccc2oc1=O (stereo not drawn)
- IC50 [14]: 35000 µg/mL (≈ 82100 µM)
- MIC (Pseudomonas aeruginosa [9]): 2200 µg/mL (≈ 5160 µM)

Structure (SMILES): O=c1oc2ccccc2c(O)c1C(Sc1nc2ccccc2[nH]1)c1ccc(O)cc1 (stereo not drawn)
- diameter of the inhibition zone (DIZ) (Bacillus subtilis [15]): 19 mm
- diameter of the inhibition zone (DIZ) (Escherichia coli [16]): 17 mm
- IC50 [17]: 9.82 µg/mL (≈ 23.6 µM)
- MIC (Aspergillus flavus [10]): 200 µg/mL (≈ 480 µM)
- diameter of the inhibition zone (DIZ) (Aspergillus flavus [11]): 18 mm

Structure (SMILES): O=c1oc2ccccc2cc1/C(Cn1cnc2ccccc21)=N\OCc1ccc(Cl)cc1
- MIC (Staphylococcus aureus [18]): 1.56 µg/mL (≈ 3.51 µM)
- MIC (Escherichia coli [19]): 3.12 µg/mL (≈ 7.03 µM)
- MIC (Bacillus subtilis [20]): 0.95 µg/mL (≈ 2.14 µM)
- MIC (Pseudomonas aeruginosa [21]): 3.12 µg/mL (≈ 7.03 µM)

Structure (SMILES): COc1ccc2oc(=O)cc(-c3nc4ccccc4n3S(=O)(=O)c3ccc(C)cc3)c2c1
- GI50 (HeLa): 35 µg/mL (≈ 78.4 µM)

Structure (SMILES): O=c1oc2ccccc2c(O)c1S(=O)(=O)Nc1nc2ccccc2[nH]1
- zone of inhibition at 500 µg/mL (Staphylococcus aureus [22]): 13 mm

Structure (SMILES): O=c1ccc2cc(OCCCCn3cnc4ccccc43)ccc2o1
- IC50 (Sprivivirus cyprinus): 0.56 µg/mL (≈ 1.67 µM)

Structure (SMILES): CO[C@@H]1[C@@H](OC(N)=O)[C@@H](O)[C@H](Oc2ccc3c(O)c(NC(=O)c4ccc(O)c(CC=C(C)C)c4)c(=O)oc3c2C)OC1(C)C [NOVOBIOCIN]
- zone of inhibition at 500 µg/mL (Staphylococcus aureus [22]): 25 mm

Structure (SMILES): CN[C@@H]1[C@H](O[C@H]2[C@H](O[C@H]3[C@H](O)[C@@H](O)[C@H](N=C(N)N)[C@@H](O)[C@@H]3N=C(N)N)O[C@@H](C)[C@]2(O)C=O)O[C@@H](CO)[C@H](O)[C@H]1O [STREPTOMYCIN]
- MIC (Pseudomonas aeruginosa [9]): 2200 µg/mL (≈ 3780 µM)
